In US20110002969A1, “COSMETIC OR PHARMACEUTICAL COMPOSITIONS COMPRISING METALLOPROTEINASE INHIBITORS” (LIPOTEC, S.A., priority 2008, published 2011):
Values joined by “and” are separate entries in the source; they are usually repeats but may differ in a detail not shown here. Equal values may be shown once.

Tests used:
Assay type in all cases: biochemical
type IV collagenase = experiment: Collagenase inhibition trial (EnzChek Gelatinase/Collagenase Assay Kit, DQ Gelatin fluorescence); conditions: peptides at 2 mg/mL, preincubated 1 hour with 0.1 unit/mL type IV collagenase; DQ Gelatin 25 μg/mL, 2 hours; normalized to medium basal values
Description: Peptides were resuspended in water in the presence of 0.5% DMSO. The trial was carried out in black microplates having 96 well and the EnzChek®Gelatinase/Collagenase Assay Kit (Molecular Probes) was used. To that end, peptides were preincubated at 2 mg/mL during 1 hour with 0.1 unit/mL of type IV collagenase at room temperature with moderate agitation, after said time fluorescein conjugated substrate (DQ™ Gelatin) was added to a final concentration of 25 μg/mL and reactions were incubated for 2 hours at room temperature with agitation and protected from light. The substrate, whose flourescence is inhibited, is […] collagenase releasing flourescent fragments, monitored by florescence with a FLUOstar galaxy reader (BMG LabTechnologies), using 485 nm filters for excitation and 520 nm for emission.
Table 2 details those peptides whose collagenase inhibition values are higher than 25%. Inhibition values were normalized with respect to medium inhibition basal values.

Human MMP-1 = target: T1, Human MMP-1 (Homo sapiens, UniProt P03956); experiment: Human MMP inhibition, DQ Gelatin fluorescence; conditions: peptides 0.5 mM, activated protease 0.35 μg/mL, 1 hour preincubation; DQ Gelatin 25 μg/mL, 16 hours; normalized to control fluorescence
T1 sequence (P03956 100-469): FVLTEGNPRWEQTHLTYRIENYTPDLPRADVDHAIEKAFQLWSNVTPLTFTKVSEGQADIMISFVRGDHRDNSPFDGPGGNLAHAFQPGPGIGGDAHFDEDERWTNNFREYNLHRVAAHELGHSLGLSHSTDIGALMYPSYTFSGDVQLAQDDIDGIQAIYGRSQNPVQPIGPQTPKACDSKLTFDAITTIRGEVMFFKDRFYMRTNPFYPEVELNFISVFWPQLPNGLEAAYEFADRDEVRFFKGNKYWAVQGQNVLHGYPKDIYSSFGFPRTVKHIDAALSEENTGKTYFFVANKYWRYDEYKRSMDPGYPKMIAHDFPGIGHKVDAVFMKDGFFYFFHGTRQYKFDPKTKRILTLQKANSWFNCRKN
Description: (§1) Human MMPs were reconstructed in 50 mM Tris-HCl, 150 mM NaCl, 5 mM CaCl2, 0.2 mM NaN3 at a 7.6 pH and activated by reaction with 10 mM of 4-aminophenylmercuric acetate (dissolved in 0.01M NaOH) at a 10:1 to 37° C. ratio for 4-6 h. Activated proteases (0.35 μg/mL) were preincubated with peptides to a final 0.5 mM concentration in a 96-well black microplate for 1 hour at room temperature. After preincubation, 25 μg/mL substrate (DQ™ Gelatin) were added to the wells and samples were incubated for 16 hours at room temperature and protected against the light. Released flourescence by marked gelatin digestion was measured with an automated multiplate fluorescence reader, exciting at 485 nm and reading at 520 nm.
(§2) The results were corrected from basal flourescent value in MMP and product absence and normalized with respect to control fluorescence. Table 3 details the best inhibition values for peptides.

Human MMP-2 = target: T2, Human MMP-2 (Homo sapiens, UniProt P08253); experiment: Human MMP inhibition, DQ Gelatin fluorescence; conditions: peptides 0.5 mM, activated protease 0.35 μg/mL, 1 hour preincubation; DQ Gelatin 25 μg/mL, 16 hours; normalized to control fluorescence; in % (unit assumed)
T2 sequence (P08253 110-660): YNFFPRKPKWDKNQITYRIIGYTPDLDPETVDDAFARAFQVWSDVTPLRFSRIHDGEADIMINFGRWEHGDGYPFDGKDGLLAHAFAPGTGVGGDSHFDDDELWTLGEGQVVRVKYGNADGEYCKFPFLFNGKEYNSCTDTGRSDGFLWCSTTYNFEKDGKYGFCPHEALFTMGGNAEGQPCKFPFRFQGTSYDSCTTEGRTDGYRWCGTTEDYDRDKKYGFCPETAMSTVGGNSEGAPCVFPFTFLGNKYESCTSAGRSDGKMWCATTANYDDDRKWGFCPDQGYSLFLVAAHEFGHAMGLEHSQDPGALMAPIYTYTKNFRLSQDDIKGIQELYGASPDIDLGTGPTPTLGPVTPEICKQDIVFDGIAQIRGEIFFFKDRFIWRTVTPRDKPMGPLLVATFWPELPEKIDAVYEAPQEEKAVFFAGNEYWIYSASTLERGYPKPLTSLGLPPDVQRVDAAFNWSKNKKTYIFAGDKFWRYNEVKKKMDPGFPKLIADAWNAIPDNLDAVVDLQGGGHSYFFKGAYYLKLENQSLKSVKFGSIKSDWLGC
Description: as §1, §2

Human MMP-3 = Human MMP-3 (Homo sapiens, UniProt P08254); experiment: Human MMP inhibition, DQ Gelatin fluorescence; conditions: peptides 0.5 mM, activated protease 0.35 μg/mL, 1 hour preincubation; DQ Gelatin 25 μg/mL, 16 hours; normalized to control fluorescence
Chain of Human MMP-3 (P08254 100-477): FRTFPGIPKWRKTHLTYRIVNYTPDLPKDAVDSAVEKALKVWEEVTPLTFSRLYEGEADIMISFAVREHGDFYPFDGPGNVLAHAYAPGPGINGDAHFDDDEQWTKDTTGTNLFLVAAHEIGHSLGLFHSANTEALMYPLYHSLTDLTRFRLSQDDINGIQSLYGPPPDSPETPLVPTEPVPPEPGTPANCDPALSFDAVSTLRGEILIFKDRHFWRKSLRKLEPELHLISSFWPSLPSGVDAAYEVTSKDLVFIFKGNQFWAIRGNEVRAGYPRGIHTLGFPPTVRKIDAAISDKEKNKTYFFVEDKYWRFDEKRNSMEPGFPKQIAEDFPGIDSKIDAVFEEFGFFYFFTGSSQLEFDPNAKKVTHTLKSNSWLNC
Description: as §1, §2

Human MMP-9 = Human MMP-9 (Homo sapiens, UniProt P14780); experiment: Human MMP inhibition, DQ Gelatin fluorescence; conditions: peptides 0.5 mM, activated protease 0.35 μg/mL, 1 hour preincubation; DQ Gelatin 25 μg/mL, 16 hours; normalized to control fluorescence; in % (unit assumed)
Chain of Human MMP-9 (P14780 107-707 limits assumed): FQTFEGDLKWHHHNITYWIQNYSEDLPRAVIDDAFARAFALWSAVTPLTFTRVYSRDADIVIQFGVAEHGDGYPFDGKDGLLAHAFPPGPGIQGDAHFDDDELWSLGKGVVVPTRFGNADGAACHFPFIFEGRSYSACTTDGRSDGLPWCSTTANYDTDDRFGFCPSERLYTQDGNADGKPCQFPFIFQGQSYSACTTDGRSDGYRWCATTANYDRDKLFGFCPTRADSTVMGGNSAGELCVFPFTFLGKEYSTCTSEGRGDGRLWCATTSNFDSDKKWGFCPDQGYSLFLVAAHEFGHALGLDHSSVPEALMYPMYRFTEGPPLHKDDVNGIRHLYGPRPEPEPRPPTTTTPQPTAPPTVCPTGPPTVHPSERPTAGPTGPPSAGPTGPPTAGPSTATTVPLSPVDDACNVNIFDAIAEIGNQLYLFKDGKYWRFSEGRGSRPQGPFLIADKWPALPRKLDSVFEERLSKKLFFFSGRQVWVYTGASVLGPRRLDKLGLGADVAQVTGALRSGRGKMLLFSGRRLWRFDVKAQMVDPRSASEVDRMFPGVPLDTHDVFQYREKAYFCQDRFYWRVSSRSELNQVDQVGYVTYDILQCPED
Description: as §1, §2

Collagenase activity inhibition percentage (type IV collagenase) [%]	MMP-1 inhibition value (Human MMP-1) [%]	MMP-2 inhibition value (Human MMP-2)	MMP-3 inhibition value (Human MMP-3) [%]	MMP-9 inhibition value (Human MMP-9)	Substance
26.8	–	–	–	–	H-L-Arg-L-Asn-L-His-L-Cit-OH
31.3	–	–	–	–	Palm-L-Arg-L-Asn-L-Arg-L-Cit-NH2
60.6	34.7	101.4	39.1	63.1	Ac-L-Arg-L-His-L-His-L-Cit-OH
36.7	–	–	–	–	Palm-L-Arg-L-His-L-His-L-Cit-NH2
60.5	–	–	–	–	Ac-L-Arg-L-His-L-Arg-L-Cit-OH
58.9	–	78.7 and 95.3	–	69.5 and 89.6	Ac-L-Arg-L-Asn-L-Arg-L-Cit-OH
55.4	–	–	–	–	Ac-L-Ara-L-His-L-His-L-Cit-CONH-(CH2)15-CH3
26.8	–	–	–	–	Ac-L-Arg-L-Asn-L-His-L-Cit-CONH-(CH2)15-CH3
